Measured values as given in BindingDB's records for doi:10.1021/cc9800374 (Smithkline Beecham Pharmaceuticals, 1999).

Experiments:
Cathepsin L = Cathepsin L (Homo sapiens, UniProt Q6LAF7); experiment: Inhibition Assay; conditions: pH 5.5
Experimental: (§1) Inhibitors were assayed against human liver Cathepsin L and B. Inhibitors were also evaluated for inhibition against purified recombinant Cathepsin K.

Cathepsin K = molecular target: T1, Cathepsin K (Homo sapiens, UniProt P43235); experiment: Inhibition Assay; conditions: pH 5.5
T1 sequence (P43235 whole entry): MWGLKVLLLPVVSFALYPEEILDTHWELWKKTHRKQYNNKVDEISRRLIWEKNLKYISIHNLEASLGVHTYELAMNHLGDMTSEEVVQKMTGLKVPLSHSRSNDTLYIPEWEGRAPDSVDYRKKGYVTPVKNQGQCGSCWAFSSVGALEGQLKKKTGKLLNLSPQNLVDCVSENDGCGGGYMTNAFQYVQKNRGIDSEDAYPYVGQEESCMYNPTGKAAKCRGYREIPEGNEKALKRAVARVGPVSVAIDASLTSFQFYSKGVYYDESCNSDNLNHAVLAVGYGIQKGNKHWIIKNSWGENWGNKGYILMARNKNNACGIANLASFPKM
Experimental: as §1

Sequence of Cathepsin L (Q6LAF7 whole entry): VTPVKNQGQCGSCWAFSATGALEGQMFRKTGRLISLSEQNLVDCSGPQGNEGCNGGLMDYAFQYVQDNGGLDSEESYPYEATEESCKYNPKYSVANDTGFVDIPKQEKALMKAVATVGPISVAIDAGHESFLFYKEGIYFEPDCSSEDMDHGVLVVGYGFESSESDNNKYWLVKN

Ki (Cathepsin L) [nM]	Ki (Cathepsin K) [nM]	SMILES
130	1.7	CC(C)C[C@H](NC(=O)c1ccc2ccccc2n1)C(=O)NC(C)C(=O)CNC(=O)Cc1cccc(-c2ccccn2)c1 (stereo partly specified) [Cathepsin Inhibitor, Column 5 Row 1]
110	170	CC(NC(=O)[C@H](Cc1ccccc1)NC(=O)c1ccc2ccccc2n1)C(=O)CNC(=O)Cc1cccc(-c2ccccn2)c1 (stereo partly specified) [Cathepsin Inhibitor, Column 5 Row 2]
> 1000	830	CC(NC(=O)[C@@H](NC(=O)c1ccc2ccccc2n1)C(C)C)C(=O)CNC(=O)Cc1cccc(-c2ccccn2)c1 (stereo partly specified) [Cathepsin Inhibitor, Column 5 Row 3]
90	1.3	CC(C)C[C@H](NC(=O)c1cc2ccccc2s1)C(=O)NC(C)C(=O)CNC(=O)Cc1cccc(-c2ccccn2)c1 (stereo partly specified) [Cathepsin Inhibitor, Column 6 Row 1]
18	16	CC(NC(=O)[C@H](Cc1ccccc1)NC(=O)c1cc2ccccc2s1)C(=O)CNC(=O)Cc1cccc(-c2ccccn2)c1 (stereo partly specified) [Cathepsin Inhibitor, Column 6 Row 2]
> 1000	300	CC(NC(=O)[C@@H](NC(=O)c1cc2ccccc2s1)C(C)C)C(=O)CNC(=O)Cc1cccc(-c2ccccn2)c1 (stereo partly specified) [Cathepsin Inhibitor, Column 6 Row 3]

The next lines start with the molecule.

SMILES	Ki (Cathepsin L) [nM]	Ki (Cathepsin K) [nM]
CC(=O)N[C@@H](CC(C)C)C(=O)NC(C)C(=O)CNC(=O)Cc1cccc(-c2ccccn2)c1 (stereo partly specified) [Cathepsin Inhibitor, Column 1 Row 1]	> 1000	200
CC(=O)N[C@@H](Cc1ccccc1)C(=O)NC(C)C(=O)CNC(=O)Cc1cccc(-c2ccccn2)c1 (stereo partly specified) [Cathepsin Inhibitor, Column 1 Row 2]	> 1000	> 1000
CC(=O)N[C@H](C(=O)NC(C)C(=O)CNC(=O)Cc1cccc(-c2ccccn2)c1)C(C)C (stereo partly specified) [Cathepsin Inhibitor, Column 1 Row 3]	> 1000	> 1000
CC(C)C[C@H](NC(=O)c1ccc(C(F)(F)F)cc1)C(=O)NC(C)C(=O)CNC(=O)Cc1cccc(-c2ccccn2)c1 (stereo partly specified) [Cathepsin Inhibitor, Column 2 Row 1]	230	8.4
CC(NC(=O)[C@H](Cc1ccccc1)NC(=O)c1ccc(C(F)(F)F)cc1)C(=O)CNC(=O)Cc1cccc(-c2ccccn2)c1 (stereo partly specified) [Cathepsin Inhibitor, Column 2 Row 2]	120	90
CC(NC(=O)[C@@H](NC(=O)c1ccc(C(F)(F)F)cc1)C(C)C)C(=O)CNC(=O)Cc1cccc(-c2ccccn2)c1 (stereo partly specified) [Cathepsin Inhibitor, Column 2 Row 3]	> 1000	430
COc1ccc(C(=O)N[C@@H](CC(C)C)C(=O)NC(C)C(=O)CNC(=O)Cc2cccc(-c3ccccn3)c2)cc1OC (stereo partly specified) [Cathepsin Inhibitor, Column 3 Row 1]	150	7.4
COc1ccc(C(=O)N[C@@H](Cc2ccccc2)C(=O)NC(C)C(=O)CNC(=O)Cc2cccc(-c3ccccn3)c2)cc1OC (stereo partly specified) [Cathepsin Inhibitor, Column 3 Row 2]	53	25
COc1ccc(C(=O)N[C@H](C(=O)NC(C)C(=O)CNC(=O)Cc2cccc(-c3ccccn3)c2)C(C)C)cc1OC (stereo partly specified) [Cathepsin Inhibitor, Column 3 Row 3]	> 1000	> 1000
CC(C)C[C@H](NC(=O)c1ccc2ncccc2c1)C(=O)NC(C)C(=O)CNC(=O)Cc1cccc(-c2ccccn2)c1 (stereo partly specified) [Cathepsin Inhibitor, Column 4 Row 1]	130	18
CC(NC(=O)[C@H](Cc1ccccc1)NC(=O)c1ccc2ncccc2c1)C(=O)CNC(=O)Cc1cccc(-c2ccccn2)c1 (stereo partly specified) [Cathepsin Inhibitor, Column 4 Row 2]	36	170
CC(NC(=O)[C@@H](NC(=O)c1ccc2ncccc2c1)C(C)C)C(=O)CNC(=O)Cc1cccc(-c2ccccn2)c1 (stereo partly specified) [Cathepsin Inhibitor, Column 4 Row 3]	> 1000	> 1000
